Laboratory results published in patent publication US7632861B2, “Substituted heterocyclic ethers and their use in CNS disorders” (Bristol-Myers Squibb Company, priority 2007, dated 2009).

Columns and labels:
NK-1 = molecular target: T1, NK-1 (Homo sapiens, UniProt P25103); test: NK1 radioligand binding assay ([125I]Substance P, U373 cell membranes); settings: 1 hour at room temperature
T1 construct: endogenous in cells; host or cells: U373 cells (crude membranes)
Method: (§1) NK-1 Binding assay. Crude membrane suspensions were prepared for the NK1 and SERT radioligand binding assays from U373 cells or recombinant HEK-293 cells expressing hSERT, respectively. Cells were harvested from T-175 flasks as follows. The medium is removed from the flasks and the cells rinsed with HBSS without Ca and without Mg. The cells are then incubated for 5-10 minutes in 10 mM Tris-Cl, pH 7.5, 5 mM EDTA before the cells are lifted with a combination of pipetting and scraping, as needed. To prepare membranes, the cell suspension is collected into centrifuge bottles and homogenized for 30 seconds with a Polytron homogenizer. The suspension is centrifuged for 30 min @ 32,000×g, 4° C., then the supernatant is decanted and the pellet resuspended and homogenized in 50 mM Tris-Cl, pH 7.5, 1 mM EDTA for 10 seconds. The suspension is then centrifuged again for 30 min @ 32,000×g, 4° C. The supernatant is decanted and the pellet resuspended in 50 mM Tris-Cl, pH 7.5, 1 mM EDTA and briefly homogenized. A Bradford assay (Bio-rad) is performed and the membrane preparation diluted to 2 mg/ml with 50 mM Tris-Cl, pH 7.5, 1 mM EDTA. Aliquots are prepared, and then frozen and stored at −80° C.
NK1 radioligand binding assay. Compounds are dissolved in 100% DMSO at a concentration 100× the desired highest assay concentration, serially diluted 1:3 in 100% DMSO, and 0.6 ul/well of each solution is dispensed to a Nunc polypropylene, round bottom, 384 well plate. 100% inhibition is defined with 0.6 ul/well of 1 mM L-733,060 (Sigma L-137) dissolved in DMSO. 30 ul/well of a 2×U373 membrane preparation (267 ug/ml in 100 mM Tris-Cl, pH 7.5, 6 mM MgCl2, 0.2% (v/v) Sigma mammalian protease inhibitor cocktail (Sigma P-8340), and 4 ug/ml chymostatin, Sigma C-7268) and 30 ul/well of a 2×radioligand solution (400 pM [^125I]Substance P (Perkin Elmer NEX-190) in 1% (w/v) BSA (Sigma A-2153), 0.1 mg/ml bacitracin, Sigma B-0125) are added to the well and the reaction incubated for 1 hour at room temperature. The contents of the assay plate are then transferred to a Millipore MultiscreenHTS GF/B filter plate which has been pretreated with 0.5% PEI for at least one hour. The plate is vacuum filtered and washed with 7 washes of 100 ul/well of 20 mM Tris-Cl, pH 7.5, 0.5% (w/v) BSA chilled to 4° C. The filtration and washing is completed in less than 90 s. The plates are air-dried overnight, 12 ul/well of MicroScint scintillation fluid added, and the plates counted in a Trilux.
(§2) Data analysis. The raw data are normalized to percent inhibition using control wells defining 0% (DMSO only) and 100% (selective inhibitor) inhibition which are run on each plate. Each plate is run in triplicate, and the concentration response curve thus generated is fit using the four-parameter dose response equation, Y=Bottom+(Top-Bottom)/(1+10^((LogIC50-X)*HillSlope)) in order to determine the IC50 value for each compound. The radioligand concentration chosen for each assay corresponds to the Kd concentration determined through saturation binding analysis for each assay.

hSERT = molecular target: T2, hSERT (Homo sapiens, UniProt P31645); test: SERT radioligand binding assay ([125I]RTI-55, HEK-hSERT membranes); settings: [125I]RTI-55, 1 hour at room temperature
T2 construct: expressed in transfected cells; host or cells: HEK-293 cells (crude membranes)
Method: as §1
SERT radioligand binding assay. Compounds are dissolved in 100% DMSO at a concentration 100× the desired highest assay concentration, serially diluted 1:3 in 100% DMSO, and 0.4 ul/well of each solution is dispensed to a Nunc polypropylene, round bottom, 384 well plate. 100% inhibition is defined with 0.4 ul/well of 1 mM fluoxetine (Sigma F-132) dissolved in DMSO. 20 ul/well of a 2×HEK-hSERT membrane preparation (15 ug/ml in 50 mM Tris-Cl, pH 7.5, 120 mM NaCl, 5 mM KCl) and 20 ul/well of a 2×radioligand solution (520 pM [^125I]RTI-55 (Perkin-Elmer NEX-272) in 50 mM Tris-Cl, pH 7.5, 120 mM NaCl, 5 mM KCl) are added to each well and the reaction incubated for 1 hour at room temperature. The contents of the assay plate are then transferred to a Millipore MultiscreenHTS GF/B filter plate which has been pretreated with 0.5% PEI for at least one hour. The plate is vacuum filtered and washed with 7 washes of 100 ul/well of 50 mM Tris-Cl, pH 7.5, 120 mM NaCl, 5 mM KCl chilled to 4° C. The filtration and washing is completed in less than 90 s. The plates are air-dried overnight, 12 ul/well of MicroScint scintillation fluid added, and the plates counted in a Trilux.
as §2

T2 sequence (P31645 whole entry): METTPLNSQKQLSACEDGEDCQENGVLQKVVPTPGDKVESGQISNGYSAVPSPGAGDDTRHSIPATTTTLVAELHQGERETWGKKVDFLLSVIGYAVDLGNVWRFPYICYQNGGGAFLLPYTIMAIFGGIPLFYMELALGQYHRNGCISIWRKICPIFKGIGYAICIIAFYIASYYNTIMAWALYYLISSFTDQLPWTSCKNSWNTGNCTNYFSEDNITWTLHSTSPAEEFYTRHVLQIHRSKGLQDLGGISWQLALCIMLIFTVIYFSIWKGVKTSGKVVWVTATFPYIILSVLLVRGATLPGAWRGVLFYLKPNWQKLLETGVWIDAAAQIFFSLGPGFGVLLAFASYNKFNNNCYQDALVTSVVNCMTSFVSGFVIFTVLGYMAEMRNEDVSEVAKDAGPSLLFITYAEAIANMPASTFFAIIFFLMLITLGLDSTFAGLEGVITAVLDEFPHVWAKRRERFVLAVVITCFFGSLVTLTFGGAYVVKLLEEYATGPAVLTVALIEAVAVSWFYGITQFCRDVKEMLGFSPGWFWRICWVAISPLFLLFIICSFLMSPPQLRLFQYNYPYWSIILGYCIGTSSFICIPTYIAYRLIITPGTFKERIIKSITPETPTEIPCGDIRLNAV
T1 sequence (P25103 whole entry): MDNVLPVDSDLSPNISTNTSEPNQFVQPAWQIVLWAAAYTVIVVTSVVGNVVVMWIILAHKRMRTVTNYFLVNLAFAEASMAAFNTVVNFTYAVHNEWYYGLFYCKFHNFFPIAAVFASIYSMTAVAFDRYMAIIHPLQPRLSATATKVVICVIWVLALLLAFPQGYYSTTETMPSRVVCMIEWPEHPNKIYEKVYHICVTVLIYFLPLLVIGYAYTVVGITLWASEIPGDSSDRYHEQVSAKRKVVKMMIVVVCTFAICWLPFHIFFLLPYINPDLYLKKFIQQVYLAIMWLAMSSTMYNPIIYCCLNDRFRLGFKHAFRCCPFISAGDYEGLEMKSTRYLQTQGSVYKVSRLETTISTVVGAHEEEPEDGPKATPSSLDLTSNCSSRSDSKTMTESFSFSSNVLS

| SMILES | IC50 (NK-1) | IC50 (hSERT) |
| --- | --- | --- |
| N#Cc1cccc(-c2cc(COCC3(CCN)OCc4ccccc43)cc(C(F)(F)F)c2)c1 (stereo not drawn) [Example 4] | 100 to 300 nM | 100 to 300 nM |
| N#Cc1ccccc1-c1cc(COCC2(CCN)OCc3ccccc32)cc(C(F)(F)F)c1 (stereo not drawn) [Example 6] | 100 to 300 nM | 100 to 300 nM |
| CN(C)CCC1(COCc2cc(N3CCOCC3)cc(C(F)(F)F)c2)OCc2ccccc21 (stereo not drawn) [Example 20, N,N-dimethyl-2-(1-((3-morpholino-5-(trifluoromethyl)benzyloxy)methyl)-1,3-dihydroisobenzofuran-1-yl)ethanamine] | 0.01 to 100 nM | 0.01 to 100 nM |
| NCCC1(COCc2cc(Cl)cc(Br)c2)OCc2ccccc21 (stereo not drawn) [Example 32] | 0.01 to 100 nM | 0.01 to 100 nM |
| CN(C)CCC1(COCc2cc(-c3ccncc3)cc(C(F)(F)F)c2)OCc2ccccc21 (stereo not drawn) [Example 19] | 0.01 to 100 nM | 0.01 to 100 nM |
| NCCC1(COCc2cc(-c3ccc(Cl)cc3)cc(C(F)(F)F)c2)OCc2ccccc21 (stereo not drawn) [Example 8] | 0.01 to 100 nM | 100 to 300 nM |
| NCCC1(COCc2cc(N3CCOCC3)cc(C(F)(F)F)c2)OCc2ccccc21 (stereo not drawn) [Example 16, 2-(1-((3-morpholino-5-(trifluoromethyl)benzyloxy)methyl)-1,3-dihydroisobenzofuran-1-yl)ethanamine] | 0.01 to 100 nM | > 300 nM |
| NCCC1(COCc2cc(-c3ccc(F)cc3)cc(C(F)(F)F)c2)OCc2ccccc21 (stereo not drawn) [Example 9] | 0.01 to 100 nM | 100 to 300 nM |
| CN(C)CCC1(COCc2cc(C(F)(F)F)cc(C(F)(F)F)c2)OCc2ccccc21 (stereo not drawn) [Example 36, 2-(1-((3,5-Bis(trifluoromethyl)benzyloxy)methyl)-1,3-dihydroisobenzofuran-1-yl)-N,N-dimethylethanamine] | 0.01 to 100 nM | 0.01 to 100 nM |
| NCCC1(COCc2cc(-c3cccc(F)c3)cc(C(F)(F)F)c2)OCc2ccccc21 (stereo not drawn) [Example 10] | 0.01 to 100 nM | 100 to 300 nM |
| NCCCC1(COCc2cc(C(F)(F)F)cc(C(F)(F)F)c2)OCc2ccccc21 (stereo not drawn) [Example 37, 3-(1-((3,5-Bis(trifluoromethyl)benzyloxy)methyl)-1,3-dihydroisobenzofuran-1-yl)propan-1-amine] | 0.01 to 100 nM | 0.01 to 100 nM |
| CN(C)CCC1(COCc2cc(Cl)cc(Br)c2)OCc2ccccc21 (stereo not drawn) [Example 31] | 100 to 300 nM | 0.01 to 100 nM |
| CC(OCC1(CCN)OCc2ccccc21)c1cc(Br)cc(C(F)(F)F)c1 (stereo not drawn) [Example 28] | 0.01 to 100 nM | > 300 nM |
| N#Cc1ccc2c(c1)COC2(CCN)COCc1cc(Br)cc(C(F)(F)F)c1 (stereo not drawn) [Example 24] | 0.01 to 100 nM | 0.01 to 100 nM |
| CC(OCC1(CCN)OCc2ccccc21)c1cc(C(F)(F)F)cc(C(F)(F)F)c1 (stereo not drawn) [Example 30] | 0.01 to 100 nM | > 300 nM |
| NCCC1(COCc2cc(-c3ccc(F)cc3F)cc(C(F)(F)F)c2)OCc2ccccc21 (stereo not drawn) [Example 15] | 0.01 to 100 nM | 100 to 300 nM |
| CN(C)CCC1(COCc2cc(C(F)(F)F)cc(C(F)(F)F)c2)OCCc2ccccc21 (stereo not drawn) [Example 40, 2-(1-((3,5-Bis(trifluoromethyl)benzyloxy)methyl)isochroman-1-yl)-N,N-dimethylethanamine] | 0.01 to 100 nM | 0.01 to 100 nM |
| CN(C)CCC1(COCc2cc(Br)cc(C(F)(F)F)c2)OCc2ccccc21 (stereo not drawn) [Example 17, 2-(1-((3-bromo-5-(trifluoromethyl)benzyloxy)methyl)-1,3-dihydroisobenzofuran-1-yl)-N,N-dimethylethanamine] | 0.01 to 100 nM | 0.01 to 100 nM |
| CC(OCC1(CCN(C)C)OCc2ccccc21)c1cc(C(F)(F)F)cc(C(F)(F)F)c1 (stereo not drawn) [Example 29] | 0.01 to 100 nM | > 300 nM |
| NCCC1(COCc2cc(-c3ccccc3Cl)cc(C(F)(F)F)c2)OCc2ccccc21 (stereo not drawn) [Example 14] | 100 to 300 nM | > 300 nM |
| NCCC1(COCc2cc(-c3ccccc3C(N)=O)cc(C(F)(F)F)c2)OCc2ccccc21 (stereo not drawn) [Example 5] | > 300 nM | > 300 nM |
| CN(C)CCC1(COCc2cc(-c3ccncc3)cc(C(F)(F)F)c2)OCc2cc(C#N)ccc21 (stereo not drawn) [Example 26] | 100 to 300 nM | > 300 nM |
| N#Cc1ccc(-c2cc(Cl)cc(COCC3(CCN)OCc4ccccc43)c2)cc1 (stereo not drawn) [Example 34] | 0.01 to 100 nM | 0.01 to 100 nM |
| NCCC1(COCc2cc(C(F)(F)F)cc(C(F)(F)F)c2)OCc2ccccc21 (stereo not drawn) [Example 35, 2-(1-((3,5-Bis(trifluoromethyl)benzyloxy)methyl)-1,3-dihydroisobenzofuran-1-yl)ethanamine] | 0.01 to 100 nM | 100 to 300 nM |
| NCCC1(COCc2cc(Br)cc(C(F)(F)F)c2)OCc2ccccc21 (stereo not drawn) [Example 1, 2-(1-((3-bromo-5-(trifluoromethyl)benzyloxy)methyl)-1,3-dihydroisobenzofuran-1-yl)ethanamine] | 0.01 to 100 nM | 0.01 to 100 nM |

Second part, the compound after the results:

| IC50 (NK-1) | IC50 (hSERT) | SMILES |
| --- | --- | --- |
| 0.01 to 100 nM | > 300 nM | COc1ccc(-c2cc(COCC3(CCN)OCc4ccccc43)cc(C(F)(F)F)c2)cc1F (stereo not drawn) [Example 12] |
| 0.01 to 100 nM | 0.01 to 100 nM | CN(C)CCC1(COCc2cc(Cl)cc(-c3ccc(C#N)cc3)c2)OCc2ccccc21 (stereo not drawn) [Example 33] |
| 0.01 to 100 nM | 100 to 300 nM | N#Cc1ccc(-c2cc(COCC3(CCN)OCc4ccccc43)cc(C(F)(F)F)c2)cc1 (stereo not drawn) [Example 2, 3′-(((1-(2-aminoethyl)-1,3-dihydroisobenzofuran-1-yl)methoxy)methyl)-5′-(trifluoromethyl)biphenyl-4-carbonitrile] |
| 0.01 to 100 nM | > 300 nM | COc1ccc(-c2cc(COCC3(CCN)OCc4ccccc43)cc(C(F)(F)F)c2)cc1 (stereo not drawn) [Example 7] |
| 0.01 to 100 nM | 100 to 300 nM | CC(OCC1(CCN(C)C)OCc2ccccc21)c1cc(Br)cc(C(F)(F)F)c1 (stereo not drawn) [Example 27] |
| 0.01 to 100 nM | > 300 nM | CN(C)CCC1(COCc2cc(C(F)(F)F)cc(C(F)(F)F)c2)OCc2cc(C#N)ccc21 (stereo not drawn) [Example 21] |
| 0.01 to 100 nM | 100 to 300 nM | NCCC1(COCc2cc(-c3ccncc3)cc(C(F)(F)F)c2)OCc2ccccc21 (stereo not drawn) [Example 3] |
| 0.01 to 100 nM | 100 to 300 nM | N#Cc1ccc2c(c1)COC2(CCN)COCc1cc(C(F)(F)F)cc(C(F)(F)F)c1 (stereo not drawn) [Example 23] |
| 0.01 to 100 nM | 100 to 300 nM | NCCC1(COCc2cc(-c3ccc(F)c(F)c3)cc(C(F)(F)F)c2)OCc2ccccc21 (stereo not drawn) [Example 11] |
| 0.01 to 100 nM | 100 to 300 nM | CN(C)CCC1(COCc2cc(-c3ccc(C#N)cc3)cc(C(F)(F)F)c2)OCc2ccccc21 (stereo not drawn) [Example 18] |
| 0.01 to 100 nM | 0.01 to 100 nM | NCCC1(COCc2cc(C(F)(F)F)cc(C(F)(F)F)c2)OCCc2ccccc21 (stereo not drawn) [Example 39, 2-(1-((3,5-Bis(trifluoromethyl)benzyloxy)methyl)isochroman-1-yl)ethanamine] |
